Data reported in ChEMBL document CHEMBL1133950, “Synthesis and biological evaluation of clitocine analogues as adenosine kinase inhibitors” (Bioorg Med Chem Lett, 2001).
pIC50: −log10 of the molar value.

Target: Adenosine kinase (Rattus norvegicus, UniProt Q64640)
Assay: In vitro inhibition of Adenosine kinase of rat brain cytosol.

Sequence of Adenosine kinase (Q64640 whole entry): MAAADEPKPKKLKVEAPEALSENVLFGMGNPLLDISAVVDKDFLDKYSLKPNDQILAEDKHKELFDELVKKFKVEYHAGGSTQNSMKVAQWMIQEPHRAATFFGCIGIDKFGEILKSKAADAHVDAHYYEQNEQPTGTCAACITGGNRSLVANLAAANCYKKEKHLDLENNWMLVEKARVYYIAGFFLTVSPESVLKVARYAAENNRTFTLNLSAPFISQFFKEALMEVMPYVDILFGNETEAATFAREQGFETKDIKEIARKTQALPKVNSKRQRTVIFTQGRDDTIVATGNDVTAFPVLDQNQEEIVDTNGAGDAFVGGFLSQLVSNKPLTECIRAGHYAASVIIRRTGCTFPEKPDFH

pIC50	Structure (SMILES)
< 5.00	Nc1ncnc(N[C@@H]2O[C@H](CO)[C@@H](O)[C@H]2O)c1[S+]([O-])c1ccccc1 (some centres undefined)
< 5.00	Nc1ncnc(N[C@@H]2O[C@H](CO)[C@@H](O)[C@H]2O)c1S(=O)(=O)c1ccccc1
5.21	COC(=O)c1c(N)ncnc1N[C@@H]1O[C@H](C)[C@@H](O)[C@H]1O
< 5.00	Nc1ncnc(N[C@@H]2O[C@H](CO)[C@@H](O)[C@H]2O)c1C(=O)NCCO
7.46	NC[C@H]1O[C@@H](Nc2ncnc(N)c2[N+](=O)[O-])[C@H](O)[C@@H]1O
< 5.00	O=[N+]([O-])c1c(Nc2ccccc2)ncnc1N[C@@H]1O[C@H](CO)[C@@H](O)[C@H]1O
8.40	COC(=O)c1cncnc1N[C@@H]1O[C@H](CN)[C@@H](O)[C@H]1O
5.00	COC(=O)c1c(N)ncnc1N[C@@H]1O[C@H](CO)[C@@H](O)[C@H]1O
< 5.00	Nc1ncnc(N[C@@H]2O[C@H](CBr)[C@@H](O)[C@H]2O)c1[N+](=O)[O-]
6.22	COC(=O)c1cncnc1N[C@@H]1O[C@H](CO)[C@@H](O)[C@H]1O
< 5.00	COC(=O)c1c(Cl)ncnc1N[C@@H]1O[C@H](CO)[C@@H](O)[C@H]1O
5.40	Nc1ncnc(N[C@@H]2O[C@H](CO)[C@@H](O)[C@H]2O)c1C1=NCCO1
8.70	COC(=O)c1c(N)ncnc1N[C@@H]1O[C@H](CN)[C@@H](O)[C@H]1O
5.40	C[C@H]1O[C@@H](Nc2ncnc(N)c2[N+](=O)[O-])[C@H](O)[C@@H]1O
